Experiments:
Assay in all cases: fitness (endpoint OD595 vs no drug) (fraction); higher = more growth
B. subtilis 168 = tested on: B. subtilis 168
How it was run: (§1)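 In 384-well plates at 37 °C, cultures began at OD595 0.01 in 30 µl, with 55 µl used for S. pneumoniae. OD595 readings every 30 min for 14 h were corrected by the first reading. Fitness divides the stationary-phase transition optical density by the robust mean of no-drug control wells. The result is capped at 1.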

S. pneumoniae D39V = tested on: S. pneumoniae D39V
How it was run: as §1

S. aureus DSM 20231 = tested on: S. aureus DSM 20231
How it was run: as §1
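Note: OD595 on entry to stationary phase over no-drug wells; at most 1.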

## C[C@H]1COc2c(N3CCN(C)CC3)c(F)cc3c(=O)c(C(=O)O)cn1c23 [Levofloxacin] + CC1=C(C(=O)O)N2C(=O)[C@@H](NC(=O)[C@H](N)c3ccccc3)[C@H]2SC1 [Cephalexin]
B. subtilis 168; first compound 0.001 µg/mL, partner 0.25 µg/mL, one replicate
  fitness: 0.969
B. subtilis 168; first compound 0.001 µg/mL, partner 0.5 µg/mL, one replicate
  fitness: 0.991
B. subtilis 168; first compound 0.001 µg/mL, partner 1 µg/mL, one replicate
  fitness: 0.921
B. subtilis 168; first compound 0.002 µg/mL, partner 0.25 µg/mL, one replicate
  fitness: 0.896
B. subtilis 168; first compound 0.002 µg/mL, partner 0.5 µg/mL, one replicate
  fitness: 0.91
B. subtilis 168; first compound 0.002 µg/mL, partner 1 µg/mL, one replicate
  fitness: 0.919
B. subtilis 168; first compound 0.0039 µg/mL, partner 0.25 µg/mL, one replicate
  fitness: 0.836
B. subtilis 168; first compound 0.0039 µg/mL, partner 0.5 µg/mL, one replicate
  fitness: 0.838
B. subtilis 168; first compound 0.0039 µg/mL, partner 1 µg/mL, one replicate
  fitness: 0.868
B. subtilis 168; first compound 0.0312 µg/mL, partner 0.125 µg/mL
  fitness: 0.0416
B. subtilis 168; first compound 0.0312 µg/mL, partner 0.25 µg/mL
  fitness: 0.0347
B. subtilis 168; first compound 0.0312 µg/mL, partner 0.5 µg/mL
  fitness: 0.036
B. subtilis 168; first compound 0.0625 µg/mL, partner 0.125 µg/mL
  fitness: 0.0518
B. subtilis 168; first compound 0.0625 µg/mL, partner 0.25 µg/mL
  fitness: 0.037
B. subtilis 168; first compound 0.0625 µg/mL, partner 0.5 µg/mL
  fitness: 0.043
B. subtilis 168; first compound 0.125 µg/mL, partner 0.125 µg/mL
  fitness: 0.0423
B. subtilis 168; first compound 0.125 µg/mL, partner 0.25 µg/mL
  fitness: 0.0386
B. subtilis 168; first compound 0.125 µg/mL, partner 0.5 µg/mL
  fitness: 0.0448
S. pneumoniae D39V; first compound 0.1725 µg/mL, partner 2 µg/mL
  fitness: 0.176
S. pneumoniae D39V; first compound 0.1725 µg/mL, partner 4 µg/mL
  fitness: 0.0529
S. pneumoniae D39V; first compound 0.2 µg/mL, partner 0.125 µg/mL, one replicate
  fitness: 0.874
S. pneumoniae D39V; first compound 0.2 µg/mL, partner 0.25 µg/mL, one replicate
  fitness: 0.91
S. pneumoniae D39V; first compound 0.2 µg/mL, partner 0.5 µg/mL, one replicate
  fitness: 0.903
S. pneumoniae D39V; first compound 0.345 µg/mL, partner 2 µg/mL
  fitness: 0.103
S. pneumoniae D39V; first compound 0.345 µg/mL, partner 4 µg/mL
  fitness: 0.001
S. pneumoniae D39V; first compound 0.4 µg/mL, partner 0.125 µg/mL, one replicate
  fitness: 0.758
S. pneumoniae D39V; first compound 0.4 µg/mL, partner 0.25 µg/mL, one replicate
  fitness: 0.782
S. pneumoniae D39V; first compound 0.4 µg/mL, partner 0.5 µg/mL, one replicate
  fitness: 0.8
S. pneumoniae D39V; first compound 0.69 µg/mL, partner 1 µg/mL
  fitness: 0.235
S. pneumoniae D39V; first compound 0.69 µg/mL, partner 2 µg/mL
  fitness: 0.0462
S. pneumoniae D39V; first compound 0.69 µg/mL, partner 4 µg/mL
  fitness: 0.022
S. pneumoniae D39V; first compound 0.8 µg/mL, partner 0.125 µg/mL, one replicate
  fitness: 0.316
S. pneumoniae D39V; first compound 0.8 µg/mL, partner 0.25 µg/mL, one replicate
  fitness: 0.354
S. pneumoniae D39V; first compound 0.8 µg/mL, partner 0.5 µg/mL, one replicate
  fitness: 0.369

## CN(C)C(=O)C(CCN1CCC(O)(c2ccc(Cl)cc2)CC1)(c1ccccc1)c1ccccc1 [Loperamide] + CC(=O)NC[C@H]1CN(c2ccc(N3CCOCC3)c(F)c2)C(=O)O1 [Linezolid]
B. subtilis 168; first compound 25 µg/mL, partner 0.0625 µg/mL, one replicate
  fitness: 0.584
B. subtilis 168; first compound 25 µg/mL, partner 0.125 µg/mL
  fitness: 0.607
B. subtilis 168; first compound 25 µg/mL, partner 0.25 µg/mL
  fitness: 0.066
B. subtilis 168; first compound 25 µg/mL, partner 0.5 µg/mL
  fitness: 0.0361
B. subtilis 168; first compound 50 µg/mL, partner 0.0625 µg/mL, one replicate
  fitness: 0.0437
B. subtilis 168; first compound 50 µg/mL, partner 0.25 µg/mL
  fitness: 0.0362
B. subtilis 168; first compound 50 µg/mL, partner 0.5 µg/mL
  fitness: 0.0318
B. subtilis 168; first compound 100 µg/mL, partner 0.0625 µg/mL, one replicate
  fitness: 0.0474
B. subtilis 168; first compound 100 µg/mL, partner 0.125 µg/mL
  fitness: 0.0357
B. subtilis 168; first compound 100 µg/mL, partner 0.25 µg/mL
  fitness: 0.0269
B. subtilis 168; first compound 100 µg/mL, partner 0.5 µg/mL
  fitness: 0.0353
S. pneumoniae D39V; first compound 17.14 µg/mL, partner 0.2 µg/mL
  fitness: 0.815
S. pneumoniae D39V; first compound 17.14 µg/mL, partner 0.4 µg/mL
  fitness: 0.709
S. pneumoniae D39V; first compound 17.14 µg/mL, partner 0.8 µg/mL
  fitness: 0.414
S. pneumoniae D39V; first compound 20 µg/mL, partner 0.105 µg/mL
  fitness: 0.938
S. pneumoniae D39V; first compound 20 µg/mL, partner 0.21 µg/mL
  fitness: 0.839
S. pneumoniae D39V; first compound 20 µg/mL, partner 0.42 µg/mL
  fitness: 0.652
S. pneumoniae D39V; first compound 34.28 µg/mL, partner 0.2 µg/mL
  fitness: 0.806
S. pneumoniae D39V; first compound 34.28 µg/mL, partner 0.4 µg/mL
  fitness: 0.701
S. pneumoniae D39V; first compound 34.28 µg/mL, partner 0.8 µg/mL
  fitness: 0.367
S. pneumoniae D39V; first compound 40 µg/mL, partner 0.105 µg/mL
  fitness: 0.947
S. pneumoniae D39V; first compound 40 µg/mL, partner 0.21 µg/mL
  fitness: 0.843
S. pneumoniae D39V; first compound 40 µg/mL, partner 0.42 µg/mL
  fitness: 0.58
S. pneumoniae D39V; first compound 68.57 µg/mL, partner 0.2 µg/mL, one replicate
  fitness: 0.91
S. pneumoniae D39V; first compound 68.57 µg/mL, partner 0.4 µg/mL, one replicate
  fitness: 0.884
S. pneumoniae D39V; first compound 68.57 µg/mL, partner 0.8 µg/mL, one replicate
  fitness: 0.532
S. pneumoniae D39V; first compound 80 µg/mL, partner 0.42 µg/mL
  fitness: 0.179

## CC1(C)S[C@@H]2[C@H](NC(=O)[C@H](N)c3ccc(O)cc3)C(=O)N2[C@H]1C(=O)O [Amoxicillin] + CC(=O)Oc1ccccc1C(=O)O [Acetylsalicylic acid]
S. aureus DSM 20231; first compound 0.0625 µg/mL, partner 250 µg/mL
  fitness: 0.511
S. aureus DSM 20231; first compound 0.0625 µg/mL, partner 500 µg/mL
  fitness: 0.449
S. aureus DSM 20231; first compound 0.0625 µg/mL, partner 1000 µg/mL
  fitness: 0.144
S. aureus DSM 20231; first compound 0.125 µg/mL, partner 250 µg/mL
  fitness: 0.448
S. aureus DSM 20231; first compound 0.125 µg/mL, partner 500 µg/mL
  fitness: 0.395
S. aureus DSM 20231; first compound 0.125 µg/mL, partner 1000 µg/mL
  fitness: 0.284
S. aureus DSM 20231; first compound 0.25 µg/mL, partner 250 µg/mL
  fitness: 0.0498
S. aureus DSM 20231; first compound 0.25 µg/mL, partner 500 µg/mL
  fitness: 0.05
S. aureus DSM 20231; first compound 0.25 µg/mL, partner 1000 µg/mL
  fitness: 0.0643
S. aureus DSM 20231; first compound 0.5 µg/mL, partner 250 µg/mL
  fitness: 0.0014
S. aureus DSM 20231; first compound 0.5 µg/mL, partner 500 µg/mL
  fitness: 0.0115
S. aureus DSM 20231; first compound 0.5 µg/mL, partner 1000 µg/mL
  fitness: 0.0095
S. pneumoniae D39V; first compound 0.0008 µg/mL, partner 250 µg/mL
  fitness: 0.958
S. pneumoniae D39V; first compound 0.0008 µg/mL, partner 500 µg/mL
  fitness: 0.939
S. pneumoniae D39V; first compound 0.0008 µg/mL, partner 1000 µg/mL
  fitness: 0.774
S. pneumoniae D39V; first compound 0.0015 µg/mL, partner 250 µg/mL
  fitness: 0.975
S. pneumoniae D39V; first compound 0.0015 µg/mL, partner 500 µg/mL
  fitness: 0.923
S. pneumoniae D39V; first compound 0.0015 µg/mL, partner 1000 µg/mL
  fitness: 0.896
S. pneumoniae D39V; first compound 0.003 µg/mL, partner 250 µg/mL
  fitness: 0.919
S. pneumoniae D39V; first compound 0.003 µg/mL, partner 500 µg/mL
  fitness: 0.905
S. pneumoniae D39V; first compound 0.003 µg/mL, partner 1000 µg/mL
  fitness: 0.865
S. pneumoniae D39V; first compound 0.006 µg/mL, partner 250 µg/mL, one replicate
  fitness: 0.465
S. pneumoniae D39V; first compound 0.006 µg/mL, partner 500 µg/mL, one replicate
  fitness: 0.507
S. pneumoniae D39V; first compound 0.006 µg/mL, partner 1000 µg/mL, one replicate
  fitness: 0.483
